# In US9707229B2, “Compositions and methods for treating an infection” (CMPD LICENSING, LLC, priority 2015, dated 2017):
# How the values were obtained:
# Format in all cases: cell-based
# Bacteroides fragilis = test: Expected efficacy of antibiotic agents; settings: Gram: anaer
# Clostridium difficile = test: Expected efficacy of antibiotic agents; settings: Gram: anaer
# Clostridium perfringens = settings: expected efficacy; Gram: anaer
# Chlamydia pneumoniae = test: Expected efficacy of antibiotic agents; settings: Gram: n/a
# Chlamydia psittaci = settings: expected efficacy; Gram: n/a
# Chlamydia trachomatis = test: Expected efficacy of antibiotic agents; settings: Gram: n/a
# Mycoplasma pneumoniae = test: Expected efficacy of antibiotic agents; settings: Gram: n/a
# Acinetobacter baumannii = test: Expected efficacy of antibiotic agents; settings: Gram: neg
# [1] = test system: Acinetobacter calcoaceticus; test: Expected efficacy of antibiotic agents; settings: Gram: neg
# Acinetobacter lwoffii = test: Expected efficacy of antibiotic agents; settings: Gram: neg
# Bordetella pertussis = test: Expected efficacy of antibiotic agents; settings: Gram: neg
# Campylobacter jejuni = test: Expected efficacy of antibiotic agents; settings: Gram: neg
# Citrobacter diversus = test: Expected efficacy of antibiotic agents; settings: Gram: neg
# Citrobacter freundii = test: Expected efficacy of antibiotic agents; settings: Gram: neg
# Enterobacter aerogenes = test: Expected efficacy of antibiotic agents; settings: Gram: neg
# Enterobacter cloacae = test: Expected efficacy of antibiotic agents; settings: Gram: neg
# Enterobacter sakazakii = test: Expected efficacy of antibiotic agents; settings: Gram: neg
# Escherichia coli = test: Expected efficacy of antibiotic agents; settings: Gram: neg
# Francisella tularensis = settings: expected efficacy; Gram: neg
# Haemophilus ducreyi = test: Expected efficacy of antibiotic agents; settings: Gram: neg
# Haemophilus influenzae = test: Expected efficacy of antibiotic agents; settings: Gram: neg
# [2] = test system: Haemophilus parainfluenzae; test: Expected efficacy of antibiotic agents; settings: Gram: neg
# [3] = test system: Klebsiella (Calymmatobacterium) granulomatis; test: Expected efficacy of antibiotic agents; settings: Gram: neg
# Klebsiella oxytoca = test: Expected efficacy of antibiotic agents; settings: Gram: neg
# Klebsiella pneumoniae = test: Expected efficacy of antibiotic agents; settings: Gram: neg
# Legionella pneumophila = settings: expected efficacy; Gram: neg
# Moraxella catarrhalis = test: Expected efficacy of antibiotic agents; settings: Gram: neg
# Morganella morganii = test: Expected efficacy of antibiotic agents; settings: Gram: neg
# Neisseria gonorrhoeae = test: Expected efficacy of antibiotic agents; settings: Gram: neg
# Neisseria meningitidis = test: Expected efficacy of antibiotic agents; settings: Gram: neg
# Proteus mirabilis = test: Expected efficacy of antibiotic agents; settings: Gram: neg
# Proteus vulgaris = test: Expected efficacy of antibiotic agents; settings: Gram: neg
# Providencia rettgeri = test: Expected efficacy of antibiotic agents; settings: Gram: neg
# Providencia stuartii = test: Expected efficacy of antibiotic agents; settings: Gram: neg
# Pseudomonas aeruginosa = test: Expected efficacy of antibiotic agents; settings: Gram: neg
# Rickettsiae = settings: expected efficacy; Gram: neg
# Salmonella typhi = test: Expected efficacy of antibiotic agents; settings: Gram: neg
# Serratia marcescens = test: Expected efficacy of antibiotic agents; settings: Gram: neg
# Shigella boydii = test: Expected efficacy of antibiotic agents; settings: Gram: neg
# Shigella dysenteriae = test: Expected efficacy of antibiotic agents; settings: Gram: neg
# Shigella flexneri = test: Expected efficacy of antibiotic agents; settings: Gram: neg
# Shigella sonnei = test: Expected efficacy of antibiotic agents; settings: Gram: neg
# Vibrio cholerae = test: Expected efficacy of antibiotic agents; settings: Gram: neg
# Yersinia pestis = settings: expected efficacy; Gram: neg
# Corynebacterium jeikeium = test: Expected efficacy of antibiotic agents; settings: Gram: pos
# [4] = test system: Corynebacterium urealyticum; test: Expected efficacy of antibiotic agents; settings: Gram: pos
# Diphtheroids = test: Expected efficacy of antibiotic agents; settings: Gram: pos
# Enterococcus faecalis = test: Expected efficacy of antibiotic agents; settings: Gram: pos
# Enterococcus faecium = test: Expected efficacy of antibiotic agents; settings: Gram: pos
# [5] = test system: Methicillin resistant staph aureus (MRSA); test: Expected efficacy of antibiotic agents; settings: Gram: pos
# Peptostreptococcus = test: Expected efficacy of antibiotic agents; settings: Gram: pos
# [6] = test system: Staphylococcus aureus (MSSA); test: Expected efficacy of antibiotic agents; settings: Gram: pos
# [7] = test system: Staphylococcus epidermidis; test: Expected efficacy of antibiotic agents; settings: Gram: pos
# Streptococcus agalactiae = test: Expected efficacy of antibiotic agents; settings: Gram: pos
# Streptococcus pneumoniae = test: Expected efficacy of antibiotic agents; settings: Gram: pos
# Streptococcus pyogenes = test: Expected efficacy of antibiotic agents; settings: Gram: pos
# [8] = test system: Viridans group streptococci; test: Expected efficacy of antibiotic agents; settings: Gram: pos
# Brucella species = settings: expected efficacy; Gram: neg
# Pseudomonas fluorescens = test: Expected efficacy of antibiotic agents; settings: Gram: neg
compound,measurement,setting,value
CO/N=C(\C(=O)N[C@@H]1C(=O)N2C(C(=O)O)=C(CSc3nc(=O)c(=O)[nH]n3C)CS[C@H]12)c1csc(N)n1 [Ceftriaxone],efficacy against Bacteroides fragilis,Bacteroides fragilis,yes
same,efficacy against Clostridium difficile,Clostridium difficile,no
same,efficacy against Clostridium perfringens,Clostridium perfringens,yes
same,efficacy against Chlamydia pneumoniae,Chlamydia pneumoniae,no
same,efficacy against Chlamydia psittaci,Chlamydia psittaci,no
same,efficacy against Chlamydia trachomatis,Chlamydia trachomatis,no
same,efficacy against Mycoplasma pneumoniae,Mycoplasma pneumoniae,no
same,efficacy against Acinetobacter baumannii,Acinetobacter baumannii,no
same,efficacy against Acinetobacter calcoaceticus,[1],no
same,efficacy against Acinetobacter lwoffii,Acinetobacter lwoffii,no
same,efficacy against Bordetella pertussis,Bordetella pertussis,no
same,efficacy against Campylobacter jejuni,Campylobacter jejuni,no
same,efficacy against Citrobacter diversus,Citrobacter diversus,yes
same,efficacy against Citrobacter freundii,Citrobacter freundii,yes
same,efficacy against Enterobacter aerogenes,Enterobacter aerogenes,yes
same,efficacy against Enterobacter cloacae,Enterobacter cloacae,yes
same,efficacy against Enterobacter sakazakii,Enterobacter sakazakii,yes
same,efficacy against Escherichia coli,Escherichia coli,yes
same,efficacy against Francisella tularensis,Francisella tularensis,no
same,efficacy against Haemophilus ducreyi,Haemophilus ducreyi,yes
same,efficacy against Haemophilus influenzae,Haemophilus influenzae,yes
same,efficacy against Haemophilus parainfluenzae,[2],yes
same,efficacy against Klebsiella (Calymmatobacterium) granulomatis,[3],yes
same,efficacy against Klebsiella oxytoca,Klebsiella oxytoca,yes
same,efficacy against Klebsiella pneumoniae,Klebsiella pneumoniae,yes
same,efficacy against Legionella pneumophila,Legionella pneumophila,no
same,efficacy against Moraxella catarrhalis,Moraxella catarrhalis,yes
same,efficacy against Morganella morganii,Morganella morganii,yes
same,efficacy against Neisseria gonorrhoeae,Neisseria gonorrhoeae,yes
same,efficacy against Neisseria meningitidis,Neisseria meningitidis,yes
same,efficacy against Proteus mirabilis,Proteus mirabilis,yes
same,efficacy against Proteus vulgaris,Proteus vulgaris,yes
same,efficacy against Providencia rettgeri,Providencia rettgeri,yes
same,efficacy against Providencia stuartii,Providencia stuartii,yes
same,efficacy against Pseudomonas aeruginosa,Pseudomonas aeruginosa,no
same,efficacy against Rickettsiae,Rickettsiae,no
same,efficacy against Salmonella typhi,Salmonella typhi,yes
same,efficacy against Serratia marcescens,Serratia marcescens,yes
same,efficacy against Shigella boydii,Shigella boydii,yes
same,efficacy against Shigella dysenteriae,Shigella dysenteriae,yes
same,efficacy against Shigella flexneri,Shigella flexneri,yes
same,efficacy against Shigella sonnei,Shigella sonnei,yes
same,efficacy against Vibrio cholerae,Vibrio cholerae,no
same,efficacy against Yersinia pestis,Yersinia pestis,no
same,efficacy against Corynebacterium jeikeium,Corynebacterium jeikeium,no
same,efficacy against Corynebacterium urealyticum,[4],no
same,efficacy against Diphtheroids,Diphtheroids,no
same,efficacy against Enterococcus faecalis,Enterococcus faecalis,no
same,efficacy against Enterococcus faecium,Enterococcus faecium,no
same,efficacy against Methicillin resistant staph aureus (MRSA),[5],no
same,efficacy against Peptostreptococcus,Peptostreptococcus,yes
same,efficacy against Staphylococcus aureus (MSSA),[6],yes
same,efficacy against Staphylococcus epidermidis,[7],yes
same,efficacy against Streptococcus agalactiae,Streptococcus agalactiae,yes
same,efficacy against Streptococcus pneumoniae,Streptococcus pneumoniae,yes
same,efficacy against Streptococcus pyogenes,Streptococcus pyogenes,yes
same,efficacy against Viridans group streptococci,[8],yes
Colistimethate,efficacy against Bacteroides fragilis,Bacteroides fragilis,no
same,efficacy against Clostridium difficile,Clostridium difficile,no
same,efficacy against Chlamydia pneumoniae,Chlamydia pneumoniae,no
same,efficacy against Chlamydia psittaci,Chlamydia psittaci,no
same,efficacy against Chlamydia trachomatis,Chlamydia trachomatis,no
same,efficacy against Mycoplasma pneumoniae,Mycoplasma pneumoniae,no
same,efficacy against Bordetella pertussis,Bordetella pertussis,no
same,efficacy against Brucella species,Brucella species,no
same,efficacy against Enterobacter aerogenes,Enterobacter aerogenes,yes
same,efficacy against Enterobacter cloacae,Enterobacter cloacae,yes
same,efficacy against Enterobacter sakazakii,Enterobacter sakazakii,yes
same,efficacy against Escherichia coli,Escherichia coli,yes
same,efficacy against Haemophilus parainfluenzae,[2],no
same,efficacy against Klebsiella (Calymmatobacterium) granulomatis,[3],yes
same,efficacy against Klebsiella oxytoca,Klebsiella oxytoca,yes
same,efficacy against Klebsiella pneumoniae,Klebsiella pneumoniae,yes
same,efficacy against Legionella pneumophila,Legionella pneumophila,no
same,efficacy against Moraxella catarrhalis,Moraxella catarrhalis,no
same,efficacy against Neisseria gonorrhoeae,Neisseria gonorrhoeae,no
same,efficacy against Neisseria meningitidis,Neisseria meningitidis,no
same,efficacy against Proteus mirabilis,Proteus mirabilis,no
same,efficacy against Proteus vulgaris,Proteus vulgaris,no
same,efficacy against Providencia rettgeri,Providencia rettgeri,no
same,efficacy against Providencia stuartii,Providencia stuartii,no
same,efficacy against Pseudomonas aeruginosa,Pseudomonas aeruginosa,yes
same,efficacy against Pseudomonas fluorescens,Pseudomonas fluorescens,yes
same,efficacy against Serratia marcescens,Serratia marcescens,no
same,efficacy against Vibrio cholerae,Vibrio cholerae,no
same,efficacy against Corynebacterium jeikeium,Corynebacterium jeikeium,no
same,efficacy against Corynebacterium urealyticum,[4],no
same,efficacy against Diphtheroids,Diphtheroids,no
same,efficacy against Enterococcus faecalis,Enterococcus faecalis,no
same,efficacy against Enterococcus faecium,Enterococcus faecium,no
same,efficacy against Methicillin resistant staph aureus (MRSA),[5],no
same,efficacy against Peptostreptococcus,Peptostreptococcus,no
same,efficacy against Staphylococcus aureus (MSSA),[6],no
same,efficacy against Staphylococcus epidermidis,[7],no
same,efficacy against Streptococcus agalactiae,Streptococcus agalactiae,no
same,efficacy against Streptococcus pneumoniae,Streptococcus pneumoniae,no
same,efficacy against Streptococcus pyogenes,Streptococcus pyogenes,no
same,efficacy against Viridans group streptococci,[8],no
